Experimental data taken from US12275685B2, “Oligo-benzamide analogs and their use in cancer treatment” (Board of Regents, The University of Texas System, priority 2018, dated 2025).

Tests used:
TNBC cells [1] = assay: ER stress induction in TNBC cells (electron microscopy, western blots); assay type: cell-based
Procedure: FIGS. 36A-H: ERX-41 induces ER stress in TNBC. (FIGS. 36A-C) Volcano plots show the relative effect of 4 h treatment of 1 μM ERX-41 compared to vehicle in MDA-MB-231 (FIG. 36A), BT-549 (FIG. 36B) TNBC and HMEC (FIG. 36C) cell lines. (FIG. 36D) Gene ontology analyses show the top regulated pathways. (FIG. 36E) Heatmap of the top ER stress and UPR genes in these three TNBC cell lines after 2 h and 4 h treatment with 1 μM ERX-41 treatment. […] (FIG. 36G) Time course of the effect of 1 μM ERX-41 on the mRNA expression of canonical ER stress genes, HSPAS and DDIT3 and UPR stress sensor-sXBP1 in MDA-MB-231, BT-549 and HMEC cells.
(§1) The basal level of expression of endoplasmic reticulum stress and unfolded protein response correlates with TK41 activity (FIG. 28). Modulation of the level of these stress proteins affects the activity of TK41. Thus, the basal level of expression of endoplasmic reticulum stress and unfolded protein response proteins may serve as a biomarker to predict response to TK41. […] Without wishing to be bound by any particular theory, the mechanism of action of TK41 may operate comprise targeting either ER or TLX and inducing endoplasmic reticulum stress, subsequent apoptosis, and blocking autophagic fusion (FIG. 30).
ERX-41 induces endoplasmic reticulum stress in TNBC. To understand the mechanism of action of ERX-41 in TNBC, the inventors performed unbiased RNA sequencing studies in three TNBC (SUM-159, MDA-MB-231, and BT549) and normal HMEC cell lines (FIGS. 36A-C). […] Heatmaps show the induction of ER stress and UPR genes in these three TNBC cell lines (FIG. 36E). Evaluation of ER stress induction was then performed with ultrastructural studies using electron microscopy (EM) studies.

TNBC cells [2] = assay: De novo protein synthesis, puromycin labeled nascent proteins; assay type: cell-based; details: 4 h and 16 h
Source text: Total protein is shown on right with coomassie blue staining.
as §1

D2A1 xenografts = assay: D2A1 syngeneic tumor model; assay type: in vivo, mice; details: 10 mg/kg daily
Procedure: FIGS. 35A-P: ERX-41 is potent against TNBC in vivo. (FIG. 35A) Following establishment of subcutaneous MDA-MB-231 xenograft tumors (200 mm^3), 10 mg/kg single dose ERX-41 was administered either by oral or intraperitoneal route. The tumor was harvested 0, 0, 5, 1, 5, 3, 6 and 24 h after drug administration and the drug levels assayed by LC-MS/MS and graphed. (FIGS. 35B-E) Following establishment of MDA-MB-231 xenografts in mammary fat pad in vivo (100 mm^3 size), daily administration of 10 mg/kg ERX-41 or vehicle control (N=8 each group) was initiated. Tumor volumes were measured using digital calipers and graphed (FIG. 35B). Tumor weights (FIG. 35C), body weights (FIG. 35D) and extirpated tumors (FIG. 35E) at end of study are also shown. (FIGS. 35F-H) Following establishment of D2A1 syngeneic xenografts in mammary fat pad in vivo (100 mm^3 size), daily administration of 10 mg/kg ERX-41 or vehicle control (N=8 each group) was initiated. Tumor volumes were measured using digital calipers and graphed (FIG. 35F) along with tumor weights (FIG. 35G) and body weights (FIG. 35H). (FIGS. 35I-P) Effect of ERX-41 on the growth (FIG. 351, FIG. 35K, FIG. 35M, FIG. 35O) and tumor weights (FIG. 35J, FIG. 35L, FIG. 35N, FIG. 35P) of four distinct TNBC PDXs compared to vehicle. *p<0.05. **p<0.01; ***p<0.001. […]

TNBC cells with LIPA KO = assay: Response of LIPA knockout TNBC cells, CellTiter-Glo; assay type: cell-based; details: LIPA KO clones
Source text: (§2) FIGS. 37A-J: The molecular target of ERX-41 in TNBC is LIPA. […] (FIG. 37B) Knockout clones of LIPA, ACACA, TMEM208, SOAT1 and ARID1A were generated in MDA-MB-231 cells and evaluated for response to ERX-41 using doseresponse curves using CellTiter-Glo assays in vitro. (FIGS. 37C-D) Effect of knockout of LIPA in SUM-159 (FIG. 37C) and MDA-MB436 (FIG. 37D) on dose response curve to ERX-41 using CellTiter-Glo assays in vitro. (FIGS. 37E-F) Dose response curves of SUM-159 parental cells and clones with LIPA KO to thapsigargin (FIG. 37E) and paclitaxel (FIG. 37F). (FIGS. 37G-H) Live cell imaging studies with SYTOX Green to examine ability of 1 μM ERX-41 to induce cell death in parental SUM-159 and SUM-159 clones with LIPA KO, with quantitation (FIG. 37G) and time-lapsed photomicrographs at 0 h and 30 h ((FIG. 37H). (FIGS. 37I-J) SCID mice were implanted with either parental SUM-159 or SUM-159 clones with LIPA KO (n=6, each group) and tumors were allowed to establish (150 mm^3). Following daily intraperitoneal administration of 10 mg/kg ERX-41, tumor sizes were measured and graphed (FIG. 37I), along with mice body weights (FIG. 37J). *p<0.05. **p<0.01; ***p<0.001.
(§3) The molecular target of ERX-41 in TNBC is LIPA. […] Knockout clones of LIPA, SLC5A3, SMAP2, TMEM208, SOAT1 and ARID1A were generated in multiple TNBC cells and evaluated for response to ERX-41.

[3] = test system: SUM-159 cells with LIPA KO; assay: Live cell imaging of SUM-159 with LIPA KO; assay type: cell-based; details: 1 μM
Source text: as §2, §3

What does the source list for CC(C)COc1cc(C(=O)Nc2ccc(C(=O)N[C@H]3CC[C@H](C)CC3)cc2OCC(C)C)ccc1NC(=O)c1ccc([N+](=O)[O-])c(OCCO)c1 [TK41]?
induction of ER stress and UPR proteins (p-PERK, IRE1a, eiF2a, CHOP) (TNBC cells [1]; 1 μM, western blotting, TNBC cells): induces ER stress and downstream UPR pathways; induction of endoplasmic reticulum stress (TNBC cells [1]; TNBC MD-MBA-231 cells): induce endoplasmic reticulum stress; dilation of the ER by electron microscopy (TNBC cells [1]; within 4 h of treatment, TNBC cells): induced dramatic dilation of the ER; de novo protein synthesis (TNBC cells [2]): shuts down de novo protein synthesis; de novo protein synthesis (TNBC cells [2]; listed as TK-41): decreases global new protein synthesis; growth of D2A1 xenografts (D2A1 xenografts): significantly reduce the growth; cytotoxic response after knockout of LIPA (TNBC cells with LIPA KO): abrogate the cytotoxic response; cell death after KO of LIPA [3]: dramatic decrease in cell death
